Here are results for 29 molecules from patent US9247759B2, “Identification of human T2R receptors that respond to bitter compounds that elicit the bitter taste in compositions, and the use thereof in assays to identify compounds that inhibit (block) bitter taste in compositions and use thereof” (SENOMYX, INC., priority 2007, dated 2016).

Sequence of hT2R8 (Q9NYW2 whole entry): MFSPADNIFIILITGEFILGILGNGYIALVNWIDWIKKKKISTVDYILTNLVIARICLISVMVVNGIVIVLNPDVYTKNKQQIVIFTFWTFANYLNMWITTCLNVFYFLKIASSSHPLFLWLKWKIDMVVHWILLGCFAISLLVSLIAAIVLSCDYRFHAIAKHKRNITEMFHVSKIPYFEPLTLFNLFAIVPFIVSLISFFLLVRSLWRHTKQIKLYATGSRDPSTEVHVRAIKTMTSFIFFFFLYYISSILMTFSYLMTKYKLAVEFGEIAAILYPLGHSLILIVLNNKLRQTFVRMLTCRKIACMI

The first test addresses hT2R8 (Homo sapiens (Human), UniProt Q9NYW2). The test can be described thus: hT2R8 antagonist high-throughput FLIPR assay, stable cell line with G16g44, agonist andrographolide. It counts as cell-based. The following applies: Table A; read-out: hT2R8 IC50. The text has this: After a ligand is identified for a particular hT2R, a HEK293 cell line stably expressing both the hT2R and G16gust44 are generated, facilitating future screening assays to identify other ligands that activate the particular hT2R or which modulate (block or enhance) the activation of this hT2R by another bitter ligand such as a bitter compound contained in coffee. This avoids the need for transient transfection.
To identify antagonists, cell lines stably expressing hT2R8 and hT2R14, respectively, together with the promiscuous chimeric G16g44 protein were generated as described in previous patent applications. A high-throughput assay was established using the stable cell lines and FLIPR (Fluorescent Imaging Plate Reader). An agonist of hT2R8 or hT2R14 was used to activate the receptors up to 70-80% of their respective maximal activity. For hT2R8, the agonist used was andrographolide (200 […]); for hT2R14, it was aristolochic acid (3 μM). To identify antagonists, compounds with diverse chemical structures were added together with the agonist.
To identify antagonists, cell lines stably expressing hT2R8 together with the promiscuous chimeric G16g44 protein were generated as described in previous patent applications. A high-throughput assay was established using the stable cell lines and FLIPR (Fluorescent Imaging Plate Reader). An agonist of hT2R8 was used to activate the receptors up to 70-80% of their respective maximal activity. For hT2R8, the agonist used was andrographolide (200 μM). To identify antagonists, compounds with diverse chemical structures were added together with the agonist.
Consider `Cc1c[nH]c(C(=O)Nc2cnn(Cc3c(C)noc3C)c2)c1` [Example 4-45, N-(1-((3,5-dimethylisoxazol-4-yl)methyl)-1H-pyrazol-4-yl)-4-methyl-1H-pyrrole-2-carboxamide], for which the IC50 was found to be 0.72 µM. For `Cc1noc(C)c1Cn1cc(NC(=O)c2cccnc2)cn1` [Example 4-46, N-(1-((3,5-dimethylisoxazol-4-yl)methyl)-1H-pyrazol-4-yl)nicotinamide], the IC50 came to 1.05 µM.

As to `Cc1cccc(C(=O)Nc2cnn(Cc3c(C)noc3C)c2)n1` [Example 4-48, N-(1-((3,5-dimethylisoxazol-4-yl)methyl)-1H-pyrazol-4-yl)-6-methylpicolinamide], the IC50 is 1.95 µM.

`Cc1noc(C)c1Cn1cc(NC(=O)c2cccn2C)cn1` [Example 4-49, N-(1-((3,5-dimethylisoxazol-4-yl)methyl)-1H-pyrazol-4-yl)-1-methyl-1H-pyrrole-2-carboxamide]: the IC50 was found to be 3.4 µM.

Take `Cc1noc(C)c1Cn1cc(NC(=O)c2ccncc2)cn1` [Example 4-50, N-(1-((3,5-dimethylisoxazol-4-yl)methyl)-1H-pyrazol-4-yl)isonicotinamide]: the IC50 amounted to 4.59 µM. Still for that read-out and setting: the value for `Cc1noc(C)c1Cn1cc(NC(=O)c2ccoc2C)cn1` [Example 4-51, N-(1-((3,5-dimethylisoxazol-4-yl)methyl)-1H-pyrazol-4-yl)-2-methylfuran-3-carboxamide] was 7.87 µM; that for `Cc1cc(C(=O)Nc2cnn(Cc3c(C)noc3C)c2)n(C)n1` [Example 4-52, N-(1-((3,5-dimethylisoxazol-4-yl)methyl)-1H-pyrazol-4-yl)-1,3-dimethyl-1H-pyrazole-5-carboxamide] was 18.1 µM. On the same count and under the same terms, the value for `Cc1cc(C(=O)Nc2cnn(Cc3c(C)noc3C)c2)c(C)o1` [Example 4-53, N-(1-((3,5-dimethylisoxazol-4-yl)methyl)-1H-pyrazol-4-yl)-2,5-dimethylfuran-3-carboxamide] was 3.03 µM. Still for that read-out and setting: the value for `Cc1ccc(C(=O)Nc2cnn(Cc3c(C)noc3C)c2)o1` [Example 4-54, N-(1-((3,5-dimethylisoxazol-4-yl)methyl)-1H-pyrazol-4-yl)-5-methylfuran-2-carboxamide] was 3.19 µM; that for `Cc1noc(C)c1Cn1cc(NC(=O)CCc2ccccc2)cn1` [Example 4-55, N-(1-((3,5-dimethylisoxazol-4-yl)methyl)-1H-pyrazol-4-yl)-3-phenylpropanamide] was 0.49 µM; that for `Cc1noc(C)c1Cn1cc(NC(=O)CCCc2ccccc2)cn1` [Example 4-56, N-(1-((3,5-dimethylisoxazol-4-yl)methyl)-1H-pyrazol-4-yl)-4-phenylbutanamide] was 0.83 µM. Take `Cc1noc(C)c1Cn1cc(NC(=O)Cc2ccoc2)cn1` [Example 4-58, N-(1-((3,5-dimethylisoxazol-4-yl)methyl)-1H-pyrazol-4-yl)-2-(furan-3-yl)acetamide]: the half-inhibitory concentration (IC50) was 8.66 µM. Turning to `CCOc1cccc(C(=O)Nc2cnn(Cc3c(C)noc3C)c2)c1` [Example 4-59, N-(1-((3,5-dimethylisoxazol-4-yl)methyl)-1H-pyrazol-4-yl)-3-ethoxybenzamide], the IC50 was 0.22 µM. On the same count and under the same terms, the value for `CCC(C)CC(=O)Nc1cnn(Cc2c(C)noc2C)c1` (stereo not drawn) [Example 4-60, N-(1-((3,5-dimethylisoxazol-4-yl)methyl)-1H-pyrazol-4-yl)-3-methylpentanamide] was 1.94 µM; that for `Cc1noc(C)c1Cn1cc(NC(=O)C2CCCCC2)cn1` [Example 4-61, N-(1-((3,5-dimethylisoxazol-4-yl)methyl)-1H-pyrazol-4-yl)cyclohexanecarboxamide] was 2.2 µM. The same measure, in the same setting: the value for `CNc1cnn(Cc2c(C)noc2C)c1` [Example 4-63, 1-((3,5-dimethylisoxazol-4-yl)methyl)-N-methyl-1H-pyrazol-4-amine] was 8.76 µM.

Consider `COc1cccc(CN(Cc2cccc(OC)c2OC)c2cnn(Cc3c(C)noc3C)c2)c1OC` [Example 4-64, N,N-bis(2,3-dimethoxybenzyl)-1-((3,5-dimethylisoxazol-4-yl)methyl)-1H-pyrazol-4-amine], for which the IC50 came to 12.6 µM. On to `Cc1noc(C)c1Cn1cc(N(C)C(=O)C(C)c2ccccc2)cn1` (stereo not drawn) [Example 4-65, N-(1-((3,5-dimethylisoxazol-4-yl)methyl)-1H-pyrazol-4-yl)-N-methyl-2-phenylpropanamide], for which the IC50 worked out at 2.81 µM. Same read-out and setting: the value for `Cc1noc(C)c1Cn1cc(N(C)C(=O)C2(c3ccccc3)CC2)cn1` [Example 4-66, N-(1-((3,5-dimethylisoxazol-4-yl)methyl)-1H-pyrazol-4-yl)-N-methyl-1-phenylcyclopropanecarboxamide] was 8.23 µM. `CO[C@H](C(=O)Nc1cnn(Cc2c(C)noc2C)c1)c1ccccc1` [Example 4-67, (S)-N-(1-((3,5-dimethylisoxazol-4-yl)methyl)-1H-pyrazol-4-yl)-2-methoxy-2-phenylacetamide]: the IC50 is 8.6 µM.

Turning to `CO[C@@H](C(=O)Nc1cnn(Cc2c(C)noc2C)c1)c1ccccc1` [Example 4-68, (R)-N-(1-((3,5-dimethylisoxazol-4-yl)methyl)-1H-pyrazol-4-yl)-2-methoxy-2-phenylacetamide], the IC50 stood at 5 µM. Same read-out and setting: the value for `COc1cc(CC(=O)Nc2cnn(Cc3c(C)noc3C)c2)ccc1O` [Example 4-69, N-(1-((3,5-dimethylisoxazol-4-yl)methyl)-1H-pyrazol-4-yl)-2-(4-hydroxy-3-methoxyphenyl)acetamide] was 4.7 µM. The same measure, in the same setting: the value for `COc1ccc(CC(=O)Nc2cnn(Cc3c(C)noc3C)c2)cc1O` [Example 4-70, N-(1-((3,5-dimethylisoxazol-4-yl)methyl)-1H-pyrazol-4-yl)-2-(3-hydroxy-4-methoxyphenyl)acetamide] was 3.1 µM; that for `COc1cccc(C(=O)Nc2cnn(Cc3c(C)noc3C)c2)c1O` [Example 4-71, N-(1-((3,5-dimethylisoxazol-4-yl)methyl)-1H-pyrazol-4-yl)-2-hydroxy-3-methoxybenzamide] was 2.9 µM; that for `Cc1noc(C)c1Cn1cc(NC(=O)c2ccc3ocnc3c2)cn1` [Example 4-72, N-(1-((3,5-dimethylisoxazol-4-yl)methyl)-1H-pyrazol-4-yl)benzo[d]oxazole-5-carboxamide] was 2.6 µM. With `COc1cc(C(=O)Nc2cnn(Cc3c(C)noc3C)c2)cc(O)c1O` [Example 4-73, N-(1-((3,5-dimethylisoxazol-4-yl)methyl)-1H-pyrazol-4-yl)-3,4-dihydroxy-5-methoxybenzamide], the half-inhibitory concentration (IC50) was 2.2 µM. Same read-out and setting: the value for `COc1cc(C(=O)Nc2cnn(Cc3c(C)noc3C)c2)ccc1C` [Example 4-74, N-(1-((3,5-dimethylisoxazol-4-yl)methyl)-1H-pyrazol-4-yl)-3-methoxy-4-methylbenzamide] was 2.2 µM; that for `Cc1cc2cc(C(=O)Nc3cnn(Cc4c(C)noc4C)c3)ccc2o1` [Example 4-75, N-(1-((3,5-dimethylisoxazol-4-yl)methyl)-1H-pyrazol-4-yl)-2-methylbenzofuran-5-carboxamide] was 2.1 µM; that for `Cc1noc(C)c1Cn1cc(NC(=O)c2cccc3nccnc23)cn1` [Example 4-76, N-(1-((3,5-dimethylisoxazol-4-yl)methyl)-1H-pyrazol-4-yl)quinoxaline-5-carboxamide] was 1.7 µM.

The test is the same for the next values; noted with them: read-out: IC50 on hT2R8 bitter receptor.
In the case of `COc1cc(C(=O)Nc2cnn(Cc3c(C)noc3C)c2)cc(O)c1O` [Example 4-73, N-(1-((3,5-dimethylisoxazol-4-yl)methyl)-1H-pyrazol-4-yl)-3,4-dihydroxy-5-methoxybenzamide], the IC50 was determined as 2.2 µM.

What is called IC50 is the concentration at which inhibition is half-maximal.
